Measurements published in patent US20070037756A1, “Compositions and methods for the prevention and treatment of circulatory conditions” (LEADTREK, INC, priority 2005, published 2007).

What was measured:
male Sprague-Dawley rats = test: Animal Model (In Vivo) Assay For Platelet Aggregation Activity using arteriovenous shunts; parameters: species or system rat; settings: oral; for Thrombus weight (newly formed thrombus wet weight): glycerol glucoside derivative 50, 100 mg/kg, aspirin 30 mg/kg x 4 times, 120 min after treatment, shunt 15 minutes, saline 12.9 mg
Procedure: Assays for platelet aggregation activity using arteriovenous shunts were carried out as provided in Umetsu et al., “Effect Of 1-Methyl-2-Mercapto-5(3-Pyridyl)-Imidazole (KC-6141), An Antiaggregation Compound, On Experimental Thrombosis In Rats” Thromb Haemostasis 39:74-83 (1978); and Tang et al., “Anti-Thrombotic Activity Of PDR, A Newly Synthesized L-Arg Derivative, On Three Thrombosis Models In Rats” Thrombosis Research 110:127-133 (2003). Briefly, male Sprague-Dawley rats weighing 320-380 g were used after overnight fasting. The rats were administered orally with: i) a negative control (isotonic saline): ii) a glycerol glucoside derivative (50, 100 mg/kg); and iii) a positive control compound, aspirin (30 mg/kg x 4 times). A 75 min period occurred between each dose to allow the return of homeostasis.
The left jugular vein and the right carotid artery were cannulated with a 4 cm long polyethylene tube (o.d. 1 mm) while being infused with 50 μ/kg i.v. heparin. These catheters were then connected to the ends of a 15 cm long polyethylene tube (o.d. 2 mm) containing a 5 cm long suture silk thread (no. 4). Before the silk thread was placed in the polyethylene tube a pre-treatment wet weight was determined (i.e., a pre-thrombus formation weight). At 120 min after each drug treatment, the blood flow through the shunt was measured for 15 minutes. The silk thread, now containing newly formed thrombi, was gently removed, and a post-treatment wet weight was measured immediately. The newly formed thrombus wet weight was determined by subtracting the pre-treatment silk wet weight from the post-treatment silk wet weight. Thrombus weight for saline was 12.9 mg, for BH-2 (Regaloside C (2)) was 8.8 mg, and for aspirin was 7.1 mg (see FIG. 12).
The rate of thrombosis inhibition was calculated with the equation as follows: % Thrombosis inhibition=(A−A1)/A×100%
Where A was the newly formed thrombus wet weight of the control group (i.e., Saline), and A1 was the newly formed thrombus wet weight of the test derivative or positive control compound (i.e., aspirin).

Rat PRP = test: Assay of in Vitro Antiplatelet Aggregation (turbidimetry, rat PRP stimulated with ADP and collagen); type: cell-based; settings: maximal aggregation induced by ADP and collagen
Procedure: Platelet aggregation was determined using methods and minor variations as described in Choo et al., Biol. Pharm. Bull. 25(10) 1328-1332 (2002) and Born et al., J. Physiol., 168, 178-195 (1963). For example, blood from rats was collected by cardiac puncture into a plastic flask containing 2.2% sodium citrate (1:9 v/v). Platelet-rich plasma (PRP) was prepared by centrifugation of the blood at 120×g for 15 min and further centrifuged at 850×g for 10 min to prepare platelet poor plasma (PPP). The supernatant was pooled and centrifuged at 600×g for 15 min at room temperature. The platelet pellets were washed with modified Tyrode-HEPES buffer (129 mM NaCl, 2.8 mM KCl, 8.9 mM NaHCO3, 0.8 mM MgCl2, 0.8 mM KH2PO4, 2 mM EGTA, 5.6 mM glucose, 10 mM HEPES, 0.35% BSA, pH 7.4) and centrifuged at 600×g for 15 min. Then platelet pellets were gently resuspended in Tyrode-HEPES buffer and used in the experiments.
Platelet aggregation was measured by turbidimetry using a dual-channel Whole Lumini-lonized Calcium Aggregometer (Chrono-Log Co., Ltd., Havertown, Pa., U.S.A.). Rat PRP ([…]) was incubated at 37° C. for 2 min in the aggregometer with stirring at 1200 rpm and then stimulated with ADP and collagen. […] Changes in light transmission were recorded for 10 min after stimulation with these agents. […]

O=C(/C=C/c1ccc(O)c(O)c1)OC[C@@H](O)CO[C@@H]1O[C@H](CO)[C@@H](O)[C@H](O)[C@H]1O [BH-2, regaloside C]
% Thrombosis inhibition (male Sprague-Dawley rats; (A-A1)/A x 100% versus saline control, rat arteriovenous shunt): 31.7%
Thrombus weight (newly formed thrombus wet weight) (male Sprague-Dawley rats): 8.8 mg

CC(=O)Oc1ccccc1C(=O)O [aspirin, acetylsalicylic acid, reference compound]
Thrombus weight (newly formed thrombus wet weight) (male Sprague-Dawley rats): 7.1 mg

O=C(O)c1cc(O)c2c(c1)C(=O)c1cccc(O)c1C2=O [rhein]
inhibition at 10 µM (Rat PRP): 1.8%
